This passage reports TGI and GI50 results from PubChem BioAssay (NCI).

Test systems include A498 renal; CAKI-1 renal; SN12C renal; A549 NSCLC; K-562 leukemia; KM12 colon; UO-31 renal; NCI-H460 lung; SF-539 CNS; M14 melanoma.
What all share (assay): inhibition of tumour cell growth, NCI panel, 48 h

Values joined by “and” are separate entries in the source; they are usually repeats but may differ in a detail not shown here. Equal values may be shown once.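 Tested at 5 concentrations; 48 h exposure; 96-well plates; endpoints linearly interpolated, else capped at highest concentration. GI50 marks 50% less growth. TGI: concentration producing complete growth inhibition.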

In the case of `C/C(=N\NC(=S)N1CCN(c2ccccn2)CC1)c1ncccn1`, the TGI with A498 renal is 6.19 µM and 16.2 µM; in the experiment with CAKI-1 renal, 16 µM; in the experiment with SN12C renal, 18.1 µM; with A549 NSCLC it was 5.91 µM and 13.2 µM; in the experiment with K-562 leukemia, 1.35 µM and 4.46 µM; with KM12 colon, 5.92 µM and 15.1 µM. In addition, the TGI in the experiment with UO-31 renal is 4.58 µM and 13.7 µM; in the experiment with NCI-H460 lung, 5.88 µM and 14 µM; in the experiment with SF-539 CNS, 6.38 µM and 15.9 µM; with M14 melanoma, 6.06 µM and 2.61 µM. Also, the GI50 with CAKI-1 renal is 0.447 µM; with SN12C renal, 0.0709 µM; with A549 NSCLC, 0.117 µM; in the experiment on KM12 colon it was 0.153 µM; in the experiment with UO-31 renal, 0.535 µM; with NCI-H460 lung, 0.0538 µM. For the same compound, the GI50 was 0.655 µM in the experiment on SF-539 CNS and 0.0938 µM in the experiment on M14 melanoma.

`c1ccc(C2CCCCC2)c(OCCCCCN2CCNCC2)c1`: the GI50 was 4.54 µM in the experiment on A498 renal; 2.81 µM with CAKI-1 renal; 2.93 µM in the experiment on SN12C renal; 4.81 µM in the experiment on A549 NSCLC; 0.313 µM with K-562 leukemia; 1.85 µM in the experiment on KM12 colon. For the same compound, the GI50 is 5.46 µM with UO-31 renal, 1.65 µM with NCI-H460 lung, 3.65 µM with SF-539 CNS and 1.86 µM with M14 melanoma. The TGI with A498 renal is 20.7 µM; in the experiment with CAKI-1 renal, 10.9 µM; in the experiment with SN12C renal, 18.1 µM; in the experiment on A549 NSCLC, 20.2 µM; with K-562 leukemia, 1.7 µM; with KM12 colon, 4 µM. The TGI in the experiment on UO-31 renal is 21.1 µM; in the experiment with NCI-H460 lung it was 3.56 µM; with SF-539 CNS, 18.1 µM; in the experiment with M14 melanoma, 3.89 µM.

As for `C=C1C(=O)O[C@H]2[C@H]1CC/C(COC(=O)NCc1c[nH]c3ccc(F)cc13)=C\CC[C@@]1(C)O[C@@H]21`, the GI50 is 3.46 µM in the experiment on A498 renal; 1.53 µM in the experiment with CAKI-1 renal; 1.32 µM in the experiment on SN12C renal; 3.17 µM with A549 NSCLC; 0.291 µM in the experiment on K-562 leukemia; 3.03 µM in the experiment on KM12 colon. The GI50 in the experiment on UO-31 renal is 1.52 µM; in the experiment on NCI-H460 lung, 2.4 µM; in the experiment on SF-539 CNS, 1.63 µM; in the experiment with M14 melanoma, 1.23 µM. In addition, the TGI was 12.9 µM with A498 renal; 3.18 µM in the experiment on CAKI-1 renal; 2.84 µM in the experiment on SN12C renal; 10.9 µM in the experiment with A549 NSCLC; 1.86 µM in the experiment with K-562 leukemia; 10.3 µM in the experiment with KM12 colon. The TGI was determined as 2.87 µM in the experiment on UO-31 renal, 6.03 µM in the experiment on NCI-H460 lung, 3.36 µM with SF-539 CNS and 2.73 µM with M14 melanoma.

`CC(C)OC(=O)C1Cc2c([nH]c3ccccc23)C(c2ccccc2)N1` (configuration not stated): the TGI with A498 renal, in the experiment with CAKI-1 renal, in the experiment on SN12C renal, with A549 NSCLC, in the experiment with K-562 leukemia and with KM12 colon was over 100 µM in each case. Also, the TGI in the experiment on UO-31 renal was 73.9 µM; with NCI-H460 lung, over 100 µM; in the experiment with SF-539 CNS, over 100 µM; with M14 melanoma, over 100 µM.

As for `COc1ccc(-c2[nH]c3ccccc3c2/C=C(\C#N)S(=O)(=O)c2ccccc2)cc1`, the GI50 in the experiment on A498 renal is 1.14 µM; in the experiment with CAKI-1 renal, 0.975 µM; in the experiment with SN12C renal, 1.34 µM; with A549 NSCLC, 0.759 µM; in the experiment with K-562 leukemia it was 0.535 µM; in the experiment on KM12 colon, 0.374 µM. Further, the GI50 is 1.88 µM in the experiment with UO-31 renal, 0.404 µM with NCI-H460 lung, 0.299 µM with SF-539 CNS and 0.383 µM in the experiment on M14 melanoma. Moreover, the TGI was over 28.6 µM in the experiment on A498 renal; over 31.6 µM in the experiment on CAKI-1 renal; over 100 µM in the experiment with SN12C renal; over 35.5 µM in the experiment on A549 NSCLC; over 100 µM in the experiment on K-562 leukemia; 2.59 µM in the experiment with KM12 colon. For the same compound, the TGI was over 100 µM in the experiment on NCI-H460 lung, 1.13 µM in the experiment with SF-539 CNS and 14.4 µM in the experiment with M14 melanoma.

As to `N#Cc1c(NC(=O)c2ccccc2F)sc2c1CCCC2`, the GI50 in the experiment with A498 renal was over 16.7 µM; with CAKI-1 renal, over 19.4 µM; in the experiment on SN12C renal it was over 25 µM; with A549 NSCLC, over 25 µM; in the experiment with K-562 leukemia, 5.07 µM; with KM12 colon, 5.12 µM. Moreover, the GI50 with UO-31 renal was over 25 µM; in the experiment with NCI-H460 lung it was over 19.5 µM; in the experiment with SF-539 CNS it was over 25 µM; in the experiment on M14 melanoma, over 25 µM. In addition, the TGI in the experiment with A498 renal, in the experiment on CAKI-1 renal, in the experiment with SN12C renal, in the experiment with A549 NSCLC, in the experiment with K-562 leukemia and with KM12 colon was over 25 µM throughout. In addition, the TGI in the experiment with UO-31 renal, with NCI-H460 lung, in the experiment on SF-539 CNS and with M14 melanoma was over 25 µM throughout.

In the case of `N#Cc1cc2c(cc1Cl)Sc1nnc(Nc3cccc4ccccc34)n1S2(=O)=O`, the GI50 is 17.5 µM in the experiment on A498 renal; 3.14 µM with CAKI-1 renal; 2.51 µM with SN12C renal; 37 µM in the experiment on A549 NSCLC; 4.08 µM in the experiment with K-562 leukemia; 2.99 µM in the experiment with KM12 colon. Further, the GI50 was 7.41 µM in the experiment on UO-31 renal, 13.8 µM in the experiment on NCI-H460 lung, 2.4 µM in the experiment on SF-539 CNS and 3.81 µM with M14 melanoma. For the same compound, the TGI with A498 renal is 31.7 µM; in the experiment on CAKI-1 renal, 10.9 µM; in the experiment with SN12C renal, 6.73 µM; with A549 NSCLC, over 100 µM; in the experiment with K-562 leukemia, over 100 µM; with KM12 colon, 10.1 µM. Moreover, the TGI was found to be 20.5 µM in the experiment on UO-31 renal, 33.8 µM with NCI-H460 lung, 5.2 µM in the experiment with SF-539 CNS and 22.8 µM in the experiment with M14 melanoma.

On to `Cc1ccc(S(=O)(=O)NC(=O)OC23COCN2COC3)cc1`, for which the TGI with A498 renal, in the experiment with CAKI-1 renal, with SN12C renal, with A549 NSCLC, in the experiment with K-562 leukemia and in the experiment with KM12 colon was over 100 µM each time. Besides, the TGI with UO-31 renal, with NCI-H460 lung, with SF-539 CNS and in the experiment on M14 melanoma was over 100 µM throughout.
